Results reported in patent publication US20100016445A1, “TRANSDERMAL DIETHYLSTILBESTROL FOR TREATING PROSTATE CANCER” (Oregon Health and Science University, priority 2006, published 2010).

What was measured:
[1] = Mouse Experiment #1: DES in mouse plasma by TSQ-ESI-MS after i.p. injection or topical DES cream; format: in vivo; details: ip, 0.75 mg, DES i.p. 0.75 mg, read-out: DES Amount in plasma
Description: 375 mg of diethylstilbestrol (DES; Sigma, cat #D4628) was then added to 2.5 ml of the lecithin solution and combined with 10 ml of the 20% poloxamer solution. This combination was stirred overnight at room temperature. The result was a viscous 3% (g/ml) DES cream, of which 0.25 ml was applied to each mouse resulting in a topical dose of approximately 7.5 mg.
100 μl samples of commercial BALB/C mouse plasma containing the following concentrations of DES were used to produce a standard curve: 0, 0.01, 0.02, 0.05, 0.08, 0.1, 0.2, 0.5, 0.8, 1.0 (nanograms of DES per milliliter of mouse plasma). Each plasma standard was spiked with 10 μl of d8-DES (Isotech, cat #614289) used as an internal standard. Prior to the next step, samples taken from live mice were exposed to 5 μl of β-glucuronidase (Sigma, cat #G7017) and incubated at 37° C. for 70 minutes at 100 rpm. The enzymatic reaction was necessary in order to separate the DES molecule from any conjugated glucoronic acid that may be present. Following this incubation, 10 μl of 6M perchloric acid and 50 μl of acetonitrile were added. Each sample was then mixed for 2 minutes, following by centrifugation at 17,000×g for 5 minutes at 5° C. The supernatant was combined with 40 μl of 0.75M potassium carbonate and mixed for 30 seconds. Precipitated potassium perchlorate was removed by centrifugation at 17,000×g for 5 minutes at 5° C. […]

[2] = Mouse Experiment #2: DES in mouse plasma by TSQ-ESI-MS after three cream applications or i.p. injection; format: in vivo, athymic nude mice; details: athymic nude, ip, DES i.p. 0.75 mg, β-glucuronidase, read-out: DES Amount in plasma
Description: 100 μl samples of commercial BALB/C mouse plasma containing the following concentrations of DES were used to produce a standard curve: 0, 0.01, 0.02, 0.05, 0.08, 0.1, 0.2, 0.5, 0.8, 1.0 (nanograms of DES per milliliter of mouse plasma). Each plasma standard was spiked with 10 μl of d8-DES (Isotech, cat #614289) used as an internal standard. Prior to the next step, samples taken from live mice were exposed to 5 μl of β-glucuronidase (Sigma, cat #G7017) and incubated at 37° C. for 70 minutes at 100 rpm. The enzymatic reaction was necessary in order to separate the DES molecule from any conjugated glucoronic acid that may be present. Following this incubation, 10 μl of 6M perchloric acid and 50 μl of acetonitrile were added. Each sample was then mixed for 2 minutes, following by centrifugation at 17,000×g for 5 minutes at 5° C. The supernatant was combined with 40 μl of 0.75M potassium carbonate and mixed for 30 seconds. Precipitated potassium perchlorate was removed by centrifugation at 17,000×g for 5 minutes at 5° C. The resulting supernatant was subjected to TSQ-ESI-MS. The chromatography conditions were the following: 25 μl metal loop, 10 μl no waste injection; oven 22° C.; flow rate 0.3 ml/min; solvents: A=water, C=MeOH; column: Hypersil Gold 100×2.1 mm, 5 μm bore (Thermo Scientific, catalog #25005-102130; with guard column). […]

[3] = test system: dihydrotestosterone and testosterone; experiment: Mouse Experiment #2: radioimmunoassay for androgen suppression by DES; format: in vivo, athymic nude mice; details: DES i.p., 1 hour (used as baseline)
Description: Six athymic nude mice (Harlan) were used for this experiment. As above, mouse 1 received a 100 μl injection of a 7.5% DES solution in DMSO, for a total dose of […]. Mice 2, 3, 4, 5, and 6 received three applications of 0%, 0.5%, 1%, 2%, and 3% DES cream at 24 h intervals. 24 h following the final cream application and 1 h post-injection, blood was taken from each mouse by cardiac puncture. Each cardiac puncture sample was combined with 0.1 ml sodium heparin (50 mg/ml; Sigma, cat #). Blood plasma was isolated from each sample by centrifugation at 4,000 rpm for 15 minutes. This yielded approximately 0.2 to 0.4 ml of plasma from each sample.
A radioimmunoassay that detects both dihydrotestosterone and testosterone was used to assess androgen suppression by DES.

[4] = patients receiving 5 mg of DES per day, oral; cited from earlier work
hot flashes = details: DES 1 mg per day, cited from earlier work
[5] = oral, versus conventional ADT, non-metastatic prostate cancer; cited from earlier work
coagulation factors = details: in vivo; cited from earlier work
[6] = cited from earlier work
[7] = PEP group, 915 men, median follow-up 27 months

CCC(=C(CC)c1ccc(O)cc1)c1ccc(O)cc1 [DES, 4-[4-(4-hydroxyphenyl)hex-3-en-3-yl]phenol]
concentration at 1 h ([1]; no β-glucuronidase): 0.089 ng/mL | concentration at 1 h ([1]; β-glucuronidase sample prep): 1.48 ng/mL | concentration at 1 h [2]: 1.93 ng/mL | [testosterone] [3]: 143 pg/mlI | increase in non-cancer related deaths, mostly cardiovascular [4]: 36% | patients with significant improvement of hot flashes (hot flashes; remaining patients): 14% | patients with resolution of hot flashes (hot flashes): 86% | urinary N-telopeptide levels (marker for bone turnover) [5]: significantly lower

C[C@]12CC[C@@H]3c4ccc(O)cc4CC[C@H]3[C@@H]1CC[C@@H]2O [transdermal estradiol, estradiol]
F1.2 (coagulation factors): did not affect

polyoestradiol phosphate [PEP]
non-fatal cardiovascular events: heart failure [6, 7]: 4.4% | non-fatal cardiovascular events: ischemic heart disease [6, 7]: 3.7% | cardiovascular or thromboembolic complications ([6]; phase I, intramuscular, 12 patients, median 12.9 months): did not cause any | Antithrombin III activity (coagulation factors): significant decrease | Factor VII (coagulation factors): no change | Fibrinogen (coagulation factors): unchanged
